Read-outs that look alike come from different tables or passages of the source.
Tested on: HT-29 cells
Assay: HT-29 cell necrosis/necroptosis inhibition (TNF-α + SMAC mimetic + zVAD-FMK; CellTiter-Glo cell viability)
Format: cell-based
Conditions: Homo sapiens
How it was run: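 HT-29 cells (~5,000/well) were switched to FBS-free McCOY's 5A holding TNF-α (10 ng/ml), SMAC mimetic (6 μM) and zVAD-FMK (10 μM), then dosed with a 10-point 1:3 series for 20 h at 37 °C. CellTiter-Glo luminescence gave viability; geometric mean EC50 from duplicates.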

[1] = HT-29, 20 h, read-out: EC50 (Cell activity; Necrosis/Necroptosis Inhibitory Activity, Compounds 1-142)
[2] = HT-29 cells, TNF-α 10 ng/ml + SMAC mimetic 6 μM + zVAD-FMK 10 μM, 20 hours, geometric mean, 10 points in duplicate, read-out: EC50 (Cell activity; Necrosis/Necroptosis Inhibitory Activity, Compounds 1-142)
[3] = HT-29 cells, TNF-α 10 ng/ml + SMAC mimetic 6 μM + zVAD-FMK 10 μM, 20 hours, geometric mean, 10 points in duplicate, read-out: EC50 (Cell activity; Necrosis/Necroptosis Inhibitory Activity, Compounds 143-323)
[4] = HT-29, 20 h, read-out: EC50 (Cell activity; Necrosis/Necroptosis Inhibitory Activity, Compounds 143-323)

Compound | EC50 [3] [nM] | other results
Cc1nn(CC#N)c(C)c1-c1nc(N2CCN(C(=O)N3N=CC[C@H]3c3cc(F)cc(C#N)c3)CC2)ncc1F [Compound 136, (S)-3-(1-(4-(4-(1-(cyanomethyl)-3,5-dimethyl-1H-pyrazol-4-yl)-5-fluoropyrimidin-2-yl)piperazine-1-carbonyl)-4,5-dihydro-1H-pyrazol-5-yl)-5-fluorobenzonitrile] | – | EC50 [1]: 0.1 to 100 nM
Cc1nn(CC2CCCCO2)c(C)c1-c1nc(N2CCN(C(=O)N3N=CC[C@H]3c3cc(F)cc(C#N)c3)CC2)ncc1F (stereo partly shown) [Compound 137, 3-((58)-1-(4-(4-(3,5-dimethyl-1-((tetrahydro-2H-pyran-2-yl)methyl)-1H-pyrazol-4-yl)-5-fluoropyrimidin-2-yl)piperazine-1-carbonyl)-4,5-dihydro-1H-pyrazol-5-yl)-5-fluorobenzonitrile] | – | EC50 [2]: 0.1 to 100 nM
Cc1nn(CCC2CCOCC2)c(C)c1-c1nc(N2CCN(C(=O)N3N=CC[C@H]3c3cc(F)cc(C#N)c3)CC2)ncc1F [Compound 138, (S)-3-(1-(4-(4-(3,5-dimethyl-1-(2-(tetrahydro-2H-pyran-4-yl)ethyl)-1H-pyrazol-4-yl)-5-fluoropyrimidin-2-yl)piperazine-1-carbonyl)-4,5-dihydro-1H-pyrazol-5-yl)-5-fluorobenzonitrile] | – | EC50 [2]: 0.1 to 100 nM
Cc1nc(C#N)nn1-c1nc(N2CCN(C(=O)N3N=CC[C@H]3c3cc(F)cc(C#N)c3)CC2)ncc1F [Compound 139, (S)-1-(2-(4-(5-(3-cyano-5-fluorophenyl)-4,5-dihydro-1H-pyrazole-1-carbonyl)piperazin-1-yl)-5-fluoropyrimidin-4-yl)-5-methyl-1H-1,2,4-triazole-3-carbonitrile] | – | EC50 [2]: 0.1 to 100 nM
Cn1cnn(-c2nc(N3CCN(C(=O)N4N=CC[C@H]4c4cc(F)cc(C#N)c4)CC3)ncc2F)c1=O [Compound 140, (S)-3-fluoro-5-(1-(4-(5-fluoro-4-(4-methyl-5-oxo-4,5-dihydro-1H-1,2,4-triazol-1-yl)pyrimidin-2-yl)piperazine-1-carbonyl)-4,5-dihydro-1H-pyrazol-5-yl)benzonitrile] | – | EC50 [1]: 0.1 to 100 nM
Cc1cc(O)n(-c2nc(N3CCN(C(=O)N4N=CC[C@H]4c4cc(F)cc(C#N)c4)CC3)ncc2F)n1 [Compound 141, (S)-3-fluoro-5-(1-(4-(5-fluoro-4-(5-hydroxy-3-methyl-1H-pyrazol-1-yl)pyrimidin-2-yl)piperazine-1-carbonyl)-4,5-dihydro-1H-pyrazol-5-yl)benzonitrile] | – | EC50 [2]: 0.1 to 100 nM
CC(=O)Nc1c(C)nn(-c2nc(N3CCN(C(=O)N4N=CC[C@H]4c4cc(F)cc(C#N)c4)CC3)ncc2F)c1C [Compound 142, (S)—N-(1-(2-(4-(5-(3-cyano-5-fluorophenyl)-4,5-dihydro-1H-pyrazole-1-carbonyl)piperazin-1-yl)-5-fluoropyrimidin-4-yl)-3,5-dimethyl-1H-pyrazol-4-yl)acetamide] | – | EC50 [1]: 0.1 to 100 nM
Cc1c(N)nn(C)c1-c1ccnc(N2CCN(C(=O)N3N=CC[C@H]3c3cc(F)cc(F)c3)CC2)n1 [Compound 143, (S)-(4-(4-(3-amino-1,4-dimethyl-1H-pyrazol-5-yl)pyrimidinyl)piperazin-1-yl)(5-(3,5-difluorophenyl)-4,5-dihydro-1H-pyrazol-1-yl)methanone] | 0.1 to 100 | –
Cc1nc(CO)nn1-c1nc(N2CCN(C(=O)N3N=CC[C@H]3c3cc(F)cc(C#N)c3)CC2)ncc1F [Compound 144, (S)-3-fluoro-5-(1-(4-(5-fluoro-4-(3-(hydroxymethyl)-5-methyl-1H-1,2,4-triazol-1-yl)pyrimidin-2-yl)piperazine-1-carbonyl)-4,5-dihydro-1H-pyrazol-5-yl)benzonitrile] | 0.1 to 100 | –
Cc1cnc(C2CC=NN2C(=O)N2CCN(c3nc(-c4c(C)cnn4C)ncc3F)CC2)s1 (stereo not shown) [Compound 145, (4-(2-(1,4-dimethyl-1H-pyrazol-5-yl)-5-fluoropyrimidin-4-yl)piperazin-1-yl)(5-(5-methylthiazol-2-yl)-4,5-dihydro-1H-pyrazol-1-yl)methanone] | 0.1 to 100 | –
Cc1nc(C)n(-c2nc(N3C[C@@H](C)N(C(=O)N4N=CC[C@H]4c4cc(F)cc(C#N)c4)[C@@H](C)C3)ncc2F)n1 [Compound 146, 3-((S)-1-((2S,6R)-4-(4-(3,5-dimethyl-1H-1,2,4-triazol-1-yl)-5-fluoropyrimidin-2-yl)-2,6-dimethylpiperazine-1-carbonyl)-4,5-dihydro-1H-pyrazol-5-yl)-5-fluorobenzonitrile] | 1000 to 10000 | –
Cc1nc(C(F)(F)F)nn1-c1ccnc(N2CCN(C(=O)N3N=CC[C@H]3c3cc(F)cc(C#N)c3)CC2)n1 [Compound 147, (S)-3-fluoro-5-(1-(4-(4-(5-methyl-3-(trifluoromethyl)-1H-1,2,4-triazol-1-yl)pyrimidin-2-yl)piperazine-1-carbonyl)-4,5-dihydro-1H-pyrazol-5-yl)benzonitrile] | 0.1 to 100 | –
Cc1ncc(C#N)n1-c1nc(N2CCN(C(=O)N3N=CC[C@H]3c3cc(F)cc(C#N)c3)CC2)ncc1F [Compound 148, 1-(2-(4-((S)-5-(3-cyano-5-fluorophenyl)-4,5-dihydro-1H-pyrazole-1-carbonyl)piperazin-1-yl)-5-fluoropyrimidin-4-yl)-2-methyl-1H-imidazole-5-carbonitrile] | – | EC50 [4]: 0.1 to 100 nM
Cc1cnn(C)c1-c1cc(N2CCN(C(=O)N3N=CC[C@H]3c3cc(F)cc(F)c3)CC2)c(F)cn1 [Compound 149, (S)-(5-(3,5-difluorophenyl)-4,5-dihydro-1H-pyrazol-1-yl)(4-(2-(1,4-dimethyl-1H-pyrazol-5-yl)-5-fluoropyridin-4-yl)piperazin-1-yl)methanone] | 0.1 to 100 | –
COc1cnc(N2CCN(C(=O)N3N=CC[C@H]3c3cc(F)cc(C#N)c3)CC2)nc1-c1ncnn1C [Compound 150, (S)-3-fluoro-5-(1-(4-(5-methoxy-4-(1-methyl-1H-1,2,4-triazol-5-yl)pyrimidin-2-yl)piperazine-1-carbonyl)-4,5-dihydro-1H-pyrazol-5-yl)benzonitrile] | 0.1 to 100 | –
Cc1cnc([C@@H]2CC=NN2C(=O)N2CCN(c3ncc(F)c(-c4nc(C#N)nn4C)n3)CC2)s1 [Compound 151, (S)-5-(5-fluoro-2-(4-(5-(5-methylthiazol-2-yl)-4,5-dihydro-1H-pyrazole-1-carbonyl)piperazin-1-yl)pyrimidin-4-yl)-1-methyl-1H-1,2,4-triazole-3-carbonitrile] | 0.1 to 100 | –
CC(=O)N1Cc2c(-c3nc(N4CCN(C(=O)N5N=CC[C@H]5c5cc(F)cc(C#N)c5)CC4)ncc3F)nn(C)c2C1 [Compound 152, (S)-3-(1-(4-(4-(5-acetyl-1-methyl-1,4,5,6-tetrahydropyrrolo[3,4-c]pyrazol-3-yl)-5-fluoropyrimidin-2-yl)piperazine-1-carbonyl)-4,5-dihydro-1H-pyrazol-5-yl)-5-fluorobenzonitrile] | – | EC50 [4]: 1000 to 10000 nM
Cc1c(N)nn(C)c1-c1nc(N2CCN(C(=O)N3N=CC[C@H]3c3cc(F)cc(C#N)c3)CC2)ncc1F [Compound 153, (S)-3-(1-(4-(4-(3-amino-1,4-dimethyl-1H-pyrazol-5-yl)-5-fluoropyrimidin-2-yl)piperazine-1-carbonyl)-4,5-dihydro-1H-pyrazol-5-yl)-5-fluorobenzonitrile] | 0.1 to 100 | –
Cc1c(N)nn(C)c1-c1ccnc(N2CCN(C(=O)N3N=CC[C@H]3c3cc(F)cc(C#N)c3)CC2)n1 [Compound 154, (S)-3-(1-(4-(4-(3-amino-1,4-dimethyl-1H-pyrazol-5-yl)pyrimidin-2-yl)piperazine-1-carbonyl)-4,5-dihydro-1H-pyrazol-5-yl)-5-fluorobenzonitrile] | 0.1 to 100 | –
Cc1c(N)nn(C)c1-c1nc(N2CCN(C(=O)N3N=CC[C@H]3c3cc(F)cc(F)c3)CC2)ncc1F [Compound 155, (S)-(4-(4-(3-amino-1,4-dimethyl-1H-pyrazol-5-yl)-5-fluoropyrimidinyl)piperazin-1-yl)(5-(3,5-difluorophenyl)-4,5-dihydro-1H-pyrazol-1-yl)methanone] | 0.1 to 100 | –
Cc1nc(C2CC=NN2C(=O)N2CCN(c3cc(-c4c(C)cnn4C)ncc3F)CC2)cs1 (stereo not shown) [Compound 156, (4-(2-(1,4-dimethyl-1H-pyrazol-5-yl)-5-fluoropyridin-4-yl)piperazin-1-yl)(5-(2-methylthiazol-4-yl)-4,5-dihydro-1H-pyrazol-1-yl)methanone] | 100 to 1000 | –
Cc1csc(C2CC=NN2C(=O)N2CCN(c3cc(-c4c(C)cnn4C)ncc3F)CC2)n1 (stereo not shown) [Compound 157, (4-(2-(1,4-dimethyl-1H-pyrazol-5-yl)-5-fluoropyridin-4-yl)piperazin-1-yl)(5-(4-methylthiazol-2-yl)-4,5-dihydro-1H-pyrazol-1-yl)methanone] | 100 to 1000 | –
Cc1nc(C2CC=NN2C(=O)N2CCN(c3nc(-c4c(C)cnn4C)ncc3F)CC2)cs1 (stereo not shown) [Compound 158, (4-(2-(1,4-dimethyl-1H-pyrazol-5-yl)-5-fluoropyrimidin-4-yl)piperazinyl)(5-(2-methylthiazol-4-yl)-4,5-dihydro-1H-pyrazol-1-yl)methanone] | 0.1 to 100 | –
Cc1cnn(C)c1-c1ncc(F)c(N2CCN(C(=O)N3N=CCC3c3cncs3)CC2)n1 (stereo not shown) [Compound 159, (4-(2-(1,4-dimethyl-1H-pyrazol-5-yl)-5-fluoropyrimidin-4-yl)piperazin-1-yl)(5-(thiazol-5-yl)-4,5-dihydro-1H-pyrazol-1-yl)methanone] | 0.1 to 100 | –
Cc1cnn(C)c1-c1ncc(F)c(N2CCN(C(=O)N3N=CCC3c3cscn3)CC2)n1 (stereo not shown) [Compound 160, (4-(2-(1,4-dimethyl-1H-pyrazol-5-yl)-5-fluoropyrimidin-4-yl)piperazin-1-yl)(5-(thiazol-4-yl)-4,5-dihydro-1H-pyrazol-1-yl)methanone] | 0.1 to 100 | –

— US12454529B2, “Piperazine cyclic ureas” (SIRONAX LTD., priority 2020, dated 2025)
